Data set [1] has as its target T1, Lysine-specific histone demethylase 1A (Homo sapiens, UniProt O60341). Nature of the data set: Drug metabolism assessed as LSD1 (unknown origin)-mediated demethylation of compound by measuring (3S,6S,9S,12S)-1-((S)-1-((S)-6-amino-2-((S)-2-((S)-4-amino-2-((S)-1-((S)-3-carboxy-2-((S)-2-((S)-1-((6S,9S,12S,15S,18S,21S,24S)-1,28-diamino-21-(3-guanidinopropyl)-12-(3-hydrazinylpropyl)-9-(hydroxymethyl)-1-imino-15-isobutyl-18-isopropyl-7,10,13,16,19,22-hexaoxo-6-((S)-pyrrolidine-2-carboxamido)-2,8,11,14,17,20,23-heptaazaoctacosanecarbonyl)pyrrolidine-2-carboxamido)-3-hydroxypropanamido)propanoyl)pyrrolidine-2-carboxamido)-4-oxobutanamido)-5-guanidinopentanamido)hexanoyl)pyrrolidin-2-yl)-3-(2-amino-2-oxoethyl)-12-carbamoyl-6-(4-hydroxybenzyl)-9-(hydroxymethyl)-1,4,7,10-tetraoxo-2,5,8,11-tetraazapentadecan-15-oic acid level after 22 hrs by MALDI-TOF mass spectrometric analysis. Type of data set: ADME.

In data set [2] the target is Lysine-specific demethylase 5A (Homo sapiens, UniProt P29375).
Sequence of Lysine-specific demethylase 5A (P29375 whole entry): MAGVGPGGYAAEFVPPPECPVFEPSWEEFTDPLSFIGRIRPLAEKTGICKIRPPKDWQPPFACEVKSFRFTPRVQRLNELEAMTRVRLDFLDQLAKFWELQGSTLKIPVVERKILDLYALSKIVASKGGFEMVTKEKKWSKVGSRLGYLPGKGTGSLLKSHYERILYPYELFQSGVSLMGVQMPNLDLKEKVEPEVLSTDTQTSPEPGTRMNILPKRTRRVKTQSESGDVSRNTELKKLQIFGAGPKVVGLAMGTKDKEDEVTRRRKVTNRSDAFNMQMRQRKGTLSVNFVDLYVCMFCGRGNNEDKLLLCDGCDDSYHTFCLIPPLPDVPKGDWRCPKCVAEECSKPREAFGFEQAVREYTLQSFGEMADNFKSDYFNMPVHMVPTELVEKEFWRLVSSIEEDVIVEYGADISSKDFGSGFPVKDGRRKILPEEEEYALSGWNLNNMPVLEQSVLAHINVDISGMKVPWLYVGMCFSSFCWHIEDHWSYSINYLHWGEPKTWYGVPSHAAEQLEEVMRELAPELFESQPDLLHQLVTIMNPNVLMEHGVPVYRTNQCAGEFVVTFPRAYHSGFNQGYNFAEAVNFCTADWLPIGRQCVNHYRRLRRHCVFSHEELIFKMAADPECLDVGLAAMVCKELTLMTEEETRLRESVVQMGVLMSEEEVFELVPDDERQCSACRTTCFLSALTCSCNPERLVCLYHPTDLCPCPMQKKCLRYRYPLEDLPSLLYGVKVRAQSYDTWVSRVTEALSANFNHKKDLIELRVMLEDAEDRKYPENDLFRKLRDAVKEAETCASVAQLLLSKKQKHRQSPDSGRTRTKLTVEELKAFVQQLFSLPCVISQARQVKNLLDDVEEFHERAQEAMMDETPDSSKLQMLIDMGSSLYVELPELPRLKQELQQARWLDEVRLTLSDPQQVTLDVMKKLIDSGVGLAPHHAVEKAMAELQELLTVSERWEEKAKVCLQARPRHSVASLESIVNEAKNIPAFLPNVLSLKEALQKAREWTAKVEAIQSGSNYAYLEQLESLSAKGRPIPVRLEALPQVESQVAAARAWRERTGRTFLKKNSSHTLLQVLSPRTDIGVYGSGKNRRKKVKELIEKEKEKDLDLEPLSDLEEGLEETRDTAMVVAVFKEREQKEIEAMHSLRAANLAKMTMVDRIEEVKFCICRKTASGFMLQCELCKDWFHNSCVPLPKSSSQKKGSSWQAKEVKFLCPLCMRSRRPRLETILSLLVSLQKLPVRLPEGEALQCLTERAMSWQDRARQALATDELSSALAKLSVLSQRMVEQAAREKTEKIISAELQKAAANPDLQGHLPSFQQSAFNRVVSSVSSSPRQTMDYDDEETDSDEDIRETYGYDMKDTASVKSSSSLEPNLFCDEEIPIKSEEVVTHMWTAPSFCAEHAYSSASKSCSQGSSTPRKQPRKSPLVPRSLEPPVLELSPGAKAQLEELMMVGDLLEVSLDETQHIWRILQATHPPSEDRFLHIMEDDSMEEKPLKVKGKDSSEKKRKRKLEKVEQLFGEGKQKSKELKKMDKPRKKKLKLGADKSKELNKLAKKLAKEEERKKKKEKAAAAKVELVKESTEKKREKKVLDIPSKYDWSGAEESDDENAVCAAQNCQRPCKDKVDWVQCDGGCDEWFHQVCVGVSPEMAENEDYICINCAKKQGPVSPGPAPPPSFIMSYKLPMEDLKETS
Description: Inhibition of JARID1A (unknown origin) using H3K4me3 peptide substrate preincubated for 5 mins followed by substrate addition by MALDI-TOF mass spectrometric analysis
For data set [3], the target named is T1, Lysine-specific histone demethylase 1A. Description: biochemical.
Description: Inhibition of full length N-terminal His-tagged human recombinant LSD1 (1 to 852 residues) expressed in Escherichia coli BL21(DE3) cells using H3K4me2 peptide as substrate preincubated for 5 mins followed by substrate addition measured for 30 mins by peroxidase coupled assay
Data set [4] has as its target T2, Lysine-specific histone demethylase 2 (Homo sapiens, UniProt Q8NB78).
T2 sequence (Q8NB78 whole entry): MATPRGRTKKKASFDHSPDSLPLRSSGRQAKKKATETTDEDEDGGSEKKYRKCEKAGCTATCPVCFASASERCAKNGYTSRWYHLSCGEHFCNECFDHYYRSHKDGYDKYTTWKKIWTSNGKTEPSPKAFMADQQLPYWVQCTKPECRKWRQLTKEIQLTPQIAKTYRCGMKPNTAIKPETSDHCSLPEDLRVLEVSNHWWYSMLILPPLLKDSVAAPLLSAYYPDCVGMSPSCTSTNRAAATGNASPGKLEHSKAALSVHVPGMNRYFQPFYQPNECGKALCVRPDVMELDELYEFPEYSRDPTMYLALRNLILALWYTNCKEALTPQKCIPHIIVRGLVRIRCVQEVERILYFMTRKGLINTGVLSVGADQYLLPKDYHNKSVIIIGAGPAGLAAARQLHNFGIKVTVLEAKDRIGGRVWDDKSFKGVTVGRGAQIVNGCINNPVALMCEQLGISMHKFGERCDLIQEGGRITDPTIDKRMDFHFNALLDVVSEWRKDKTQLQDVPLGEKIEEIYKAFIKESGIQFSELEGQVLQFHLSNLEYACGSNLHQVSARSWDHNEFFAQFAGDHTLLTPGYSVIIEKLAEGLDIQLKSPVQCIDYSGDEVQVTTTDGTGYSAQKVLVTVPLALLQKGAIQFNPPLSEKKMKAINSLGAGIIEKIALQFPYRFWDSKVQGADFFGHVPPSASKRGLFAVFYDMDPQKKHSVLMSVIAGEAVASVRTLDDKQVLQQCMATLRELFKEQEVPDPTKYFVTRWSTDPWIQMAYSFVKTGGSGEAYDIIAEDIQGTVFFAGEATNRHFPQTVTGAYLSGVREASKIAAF
Description: biochemical.
Description: Inhibition of full length N-terminal His-tagged human LSD2 (1 to 822 residues) expressed in Escherichia coli BL21(DE3) cells using H3K4me2 peptide substrate by MALDI-TOF mass spectrometric analysis

The target of data set [5] is T3, Amine oxidase [flavin-containing] A (Homo sapiens, UniProt P21397).
T3 sequence (P21397 whole entry): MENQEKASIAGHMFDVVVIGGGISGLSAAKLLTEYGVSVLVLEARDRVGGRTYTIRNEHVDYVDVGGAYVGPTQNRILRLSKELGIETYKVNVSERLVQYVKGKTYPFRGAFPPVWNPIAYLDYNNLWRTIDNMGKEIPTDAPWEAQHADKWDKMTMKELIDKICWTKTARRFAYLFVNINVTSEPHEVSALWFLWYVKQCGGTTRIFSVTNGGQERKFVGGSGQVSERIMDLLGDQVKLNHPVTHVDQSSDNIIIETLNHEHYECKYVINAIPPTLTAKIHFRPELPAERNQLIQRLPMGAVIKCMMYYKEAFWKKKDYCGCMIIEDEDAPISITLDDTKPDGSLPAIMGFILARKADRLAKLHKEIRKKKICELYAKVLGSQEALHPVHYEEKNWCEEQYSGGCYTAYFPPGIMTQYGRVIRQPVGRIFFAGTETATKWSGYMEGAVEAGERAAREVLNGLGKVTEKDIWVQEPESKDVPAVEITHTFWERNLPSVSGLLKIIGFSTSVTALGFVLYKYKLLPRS
Description: biochemical.
Description: Inhibition of human recombinant MAO-A expressed in baculovirus infected BTI insect cells using (4S)-4,5-dihydro-2-(6-hydroxybenzothiazolyl)-4-thiazolecarboxylic acid as substrate incubated for 60 mins by MAO-Glo assay

For data set [6], the target named is T4, Amine oxidase [flavin-containing] B (Homo sapiens, UniProt P27338).
T4 sequence (P27338 whole entry): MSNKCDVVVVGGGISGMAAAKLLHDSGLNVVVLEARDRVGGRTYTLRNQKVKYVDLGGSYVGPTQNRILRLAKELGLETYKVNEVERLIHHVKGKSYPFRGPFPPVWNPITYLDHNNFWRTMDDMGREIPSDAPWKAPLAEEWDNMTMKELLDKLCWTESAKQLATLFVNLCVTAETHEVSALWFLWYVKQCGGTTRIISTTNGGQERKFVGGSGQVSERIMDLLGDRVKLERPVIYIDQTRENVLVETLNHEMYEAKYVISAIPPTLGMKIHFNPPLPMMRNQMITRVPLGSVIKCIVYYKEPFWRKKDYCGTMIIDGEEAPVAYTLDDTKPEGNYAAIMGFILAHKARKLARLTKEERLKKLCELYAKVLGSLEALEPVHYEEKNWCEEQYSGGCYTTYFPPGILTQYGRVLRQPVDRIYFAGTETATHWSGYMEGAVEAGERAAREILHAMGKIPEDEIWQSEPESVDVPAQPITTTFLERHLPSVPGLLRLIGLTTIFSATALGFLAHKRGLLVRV
Nature of the data set: biochemical.
Description: Inhibition of human recombinant MAO-B expressed in baculovirus infected BTI insect cells using (4S)-4,5-dihydro-2-(6-hydroxybenzothiazolyl)-4-thiazolecarboxylic acid as substrate incubated for 60 mins by MAO-Glo assay

In data set [7] the target is T1, Lysine-specific histone demethylase 1A. Nature of the data set: Inhibition of LSD1 in human HeLa cells assessed as H3K4me2/H3 ratio at 20 uM after 24 hrs by Western blot analysis in absence of fetal bovine serum. It is filed as cell-based.
For data set [8], the system named is HeLa. Description: Antiproliferative activity against human HeLa cells assessed as reduction in cell viability at 300 uM treated for 24 hrs measured after 48 hrs by alamar blue assay in absence of fetal bovine serum relative to control. Type of data set: functional. In general terms: The colour change of resazurin is a common sign of viable cells or microbes.

The test system of data set [9] is HeLa. Nature of the data set: Antiproliferative activity against human HeLa cells assessed as reduction in cell viability at 100 uM treated for 24 hrs measured after 48 hrs by alamar blue assay in absence of fetal bovine serum. Type of data set: functional, cell-based.

Activity calls are given as the source filed them. The calls are words filed in the database; no cut-off is given here. *1 amine or outer side, *2 acyl side, *3 side chain or, on linkers, in order; H or OH if unused. Where a SMILES comes first, the peptide text is derived from it. [ ]: non-standard residue; d: D form. X2 = CNNCCC[C@H](N[*:1])C(=O)[*:2]

Broadly, the IC50 is the concentration at which inhibition is half-maximal. A higher IC50 goes with weaker potency in that assay. With `CNNCCC[C@H](NC(=O)[C@H](CO)NC(=O)[C@H](CCCNC(=N)N)NC(=O)[C@@H]1CCCN1)C(=O)N[C@@H](CC(C)C)C(=O)N[C@H](C(=O)N[C@@H](CCCNC(=N)N)C(=O)N[C@@H](CCCCN)C(=O)N1CCC[C@H]1C(=O)N[C@@H](CO)C(=O)N[C@@H](CC(=O)O)C(=O)N1CCC[C@H]1C(=O)N[C@@H](CC(N)=O)C(=O)N[C@@H](CCCNC(=N)N)C(=O)N[C@@H](CCCCN)C(=O)N1CCC[C@H]1C(=O)N[C@@H](CC(N)=O)C(=O)N[C@@H](Cc1ccc(O)cc1)C(=O)N[C@@H](CO)C(=O)N[C@@H](CCC(N)=O)C(N)=O)C(C)C` (H-PRS[X2]LVRKPSDPNRKPNYSQ-NH2), in data set [1], the Drug metabolism entry is listed as “metabolite_detected”. For the same molecule, the concentration for half-maximal inhibition (IC50) was > 50 µM in [2]; 8.4 µM in [3]; > 50 µM in [4]; > 30 µM in [5]; > 30 µM in data set [6].

With `O=C(O)c1ccc(CN2CCC(CN[C@H]3C[C@@H]3c3ccccc3)CC2)cc1`, the Ratio in data set [7] stood at 2.03. Further, the Activity in the data set on HeLa [8] stood at 9.96%. For the same molecule, in the data set with HeLa [9], the outcome was inactive. Besides, in data set [3], half-maximal inhibition (IC50) was put at 0.61 µM.

(Values after ChEMBL document CHEMBL3774333, “Identification of SNAIL1 Peptide-Based Irreversible Lysine-Specific Demethylase 1-Selective Inactivators” (J Med Chem, 2016).)
